Patent US12187701B2, “Taire family kinase inhibitors and uses thereof” (Dana-Farber Cancer Institute, Inc., priority 2018, dated 2025)
Read-outs that look alike come from different tables or passages of the source.

Experiments:
HCT116 cells = assay: Antiproliferation assay, Cell Titer Glo, 72 hours; format: cell-based
Method in brief: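 HCT116 cells seeded at 750 cells/well in McCoy's 5A with 10% FBS and exposed to four-fold compound dilution series for 72 h at 37 °C, 5% CO2. Viability by CellTiter-Glo luminescence, quadruplicate; IC50 by non-linear regression.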

Cdk14 [1] = target: T1, Cdk14 (Homo sapiens (Human), UniProt O94921); assay: Cellular pull down with biotinylated probe, CDK14; format: cell-based; conditions: HEK293 cells overexpressing Cdk14-flag, 4 hours treatment;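 note: biotinylated probe used at 1 µM in lysates overnight at 4 °C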
Procedure: HEK293 cells overexpressing a Cdk14-flag fusion protein were treated with candidate compounds for 4 hours. Cells were washed with PBS, harvested and lysed in Pierce IP buffer with protease and phosphatase inhibitors (Roche). […] To enhance pulldown, lysates were incubated at room temperature for an additional 2 hours. […] Beads were then washed 3 times with Pierce IP buffer, then boiled at 95° C. for 5 minutes in 2× LDS+10% β-mercaptoethanol. Proteins of interest engaged by the biotinylated compound were then assessed using western blotting.
Target sequence in this assay (O94921 whole entry, the tested form may be a part): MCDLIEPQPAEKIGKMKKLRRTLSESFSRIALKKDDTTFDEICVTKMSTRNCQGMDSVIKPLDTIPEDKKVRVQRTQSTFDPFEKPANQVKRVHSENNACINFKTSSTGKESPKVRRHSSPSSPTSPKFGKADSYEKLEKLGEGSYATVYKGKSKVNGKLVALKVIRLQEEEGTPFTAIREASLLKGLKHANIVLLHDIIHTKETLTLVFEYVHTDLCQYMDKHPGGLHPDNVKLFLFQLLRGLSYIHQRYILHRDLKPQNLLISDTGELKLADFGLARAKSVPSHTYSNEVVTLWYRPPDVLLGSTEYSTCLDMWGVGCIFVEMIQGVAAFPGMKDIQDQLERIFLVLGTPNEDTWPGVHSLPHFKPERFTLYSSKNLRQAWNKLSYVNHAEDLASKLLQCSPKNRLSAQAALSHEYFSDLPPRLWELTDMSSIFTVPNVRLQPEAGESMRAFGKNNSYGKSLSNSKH

Cdk14 [2] = target: T1, Cdk14; assay: Protein labeling and mass spectrometry analysis of recombinant Cdk14; format: binding; conditions: 10-fold molar excess of compound, 2 hours, room temperature
Target sequence in this assay (O94921 whole entry, the tested form may be a part): as above
Procedure: For each analysis, 5 μg protein was injected onto a self-packed reversed phase column ( 1/32″ O.D.×500 um I.D., 5 cm of POROS 50R2 resin). After desalting for four minutes, protein was eluted with an HPLC gradient (0-100% B in 4 minutes, A=0.2M acetic acid in water, B=0.2 M acetic acid in acetonitrile, flow rate=10 μL/min) into an LTQ ion trap mass spectrometer (ThermoFisher). […] After reconstituting in 50% acetonitrile, 1% formic acid, 100 mM ammonium acetate, peptides were analyzed by CE-MS using a ZipChip CE system and autosampler interfaced to a QExactive HF mass spectrometer.^7 (ThermoFisher Scientific, San Jose, CA). Peptide solution was loaded for 30 seconds and separation performed at 500 V/cm on an HR chip for 10 minutes with a background electrolyte consisting of 1% formic acid in 50% acetonitrile. Pressure assist was utilized and started at 1 minute. The mass spectrometer was operated in data dependent mode and subjected the 5 most abundant ions in each MS scan (60 k resolution, 1E6 target, lock mass enabled) to MS/MS (15 k resolution, 2E5 target, 100 ms max inject time). Dynamic exclusion was enabled with a repeat count of 1 and an exclusion time of 6 seconds. MS/MS data was extracted to .mgf using mulitplierz scripts^8,9 and searched against a forward-reverse human NCBI refseq database using Mascot version 2.2. […]

Cdk14 [3] = target: T1, Cdk14; assay: Cdk14 33P kinase assay (Reaction Biology Corp.); format: biochemical
Target sequence in this assay (O94921 whole entry, looked up, the tested form may be a part): as the sequence (O94921 whole entry, the tested form may be a part) above
Target sequence in this assay (Q8ND76 whole entry partner, looked up, the tested form may be a part): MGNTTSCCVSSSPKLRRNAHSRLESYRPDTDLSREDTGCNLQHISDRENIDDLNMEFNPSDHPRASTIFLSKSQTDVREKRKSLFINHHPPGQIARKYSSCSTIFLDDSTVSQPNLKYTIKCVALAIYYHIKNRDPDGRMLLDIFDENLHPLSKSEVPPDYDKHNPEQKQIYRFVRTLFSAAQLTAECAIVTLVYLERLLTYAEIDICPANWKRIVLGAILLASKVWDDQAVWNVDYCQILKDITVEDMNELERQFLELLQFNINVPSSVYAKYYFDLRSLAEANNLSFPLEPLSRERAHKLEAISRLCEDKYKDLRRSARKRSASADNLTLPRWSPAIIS

Cdk14/CycY = Cdk14/CycY (Homo sapiens (Human), UniProt O94921); assay: Lanthascreen Eu kinase binding assay for Cdk14/CycY with 30 minute pre-incubation; conditions: 30 minute pre-incubation of kinase with compound
Cdk14/CycY, sequence (O94921 whole entry): as the sequence (O94921 whole entry, the tested form may be a part) above
Cdk14/CycY, sequence (Q8ND76 whole entry partner): as the sequence (Q8ND76 whole entry partner, looked up, the tested form may be a part) above
Procedure: Lanthascreen Eu kinase binding assays were conducted for Cdk14/CycY largely as performed in the commercial assay service by Life Technologies, but included a 30 minute pre-incubation step of the kinase with candidate compounds to facilitate covalent bond formation.

CDK2/CycA = CDK2/CycA (Homo sapiens (Human), UniProt P24941); assay: Z'LYTE kinase assay for CDK2/CycA at Km ATP; format: biochemical
CDK16/CycY = CDK16/CycY (Homo sapiens (Human), UniProt Q00536); assay: Lanthascreen Eu kinase binding assay for CDK16/CycY
CDK16/CycY, sequence (Q00536 whole entry): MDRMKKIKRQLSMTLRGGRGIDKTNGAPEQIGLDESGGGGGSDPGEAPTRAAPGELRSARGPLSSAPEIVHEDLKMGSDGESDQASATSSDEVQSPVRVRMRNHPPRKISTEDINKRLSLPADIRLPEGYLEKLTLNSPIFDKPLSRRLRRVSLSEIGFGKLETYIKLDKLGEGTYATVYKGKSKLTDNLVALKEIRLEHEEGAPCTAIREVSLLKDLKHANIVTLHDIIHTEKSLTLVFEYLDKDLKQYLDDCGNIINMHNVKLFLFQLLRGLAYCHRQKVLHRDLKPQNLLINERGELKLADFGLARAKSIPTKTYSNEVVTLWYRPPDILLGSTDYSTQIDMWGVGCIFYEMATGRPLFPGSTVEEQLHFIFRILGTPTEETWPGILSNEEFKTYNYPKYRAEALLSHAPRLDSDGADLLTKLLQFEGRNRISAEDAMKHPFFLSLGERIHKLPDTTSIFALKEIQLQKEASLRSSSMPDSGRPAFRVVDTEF
CDK16/CycY, sequence (Q8ND76 whole entry partner): as the sequence (Q8ND76 whole entry partner, looked up, the tested form may be a part) above
Procedure: Lanthascreen Eu kinase binding assays were conducted for CDK16/CycY at Life Technologies.

CDK12 = CDK12 (Homo sapiens (Human), UniProt Q9NYV4); assay: Cellular pull down with biotinylated probe, CDK12; format: cell-based; conditions: HEK293 cells, 4 hours treatment; Y/N/slight
CDK12, sequence (Q9NYV4 whole entry, the tested form may be a part): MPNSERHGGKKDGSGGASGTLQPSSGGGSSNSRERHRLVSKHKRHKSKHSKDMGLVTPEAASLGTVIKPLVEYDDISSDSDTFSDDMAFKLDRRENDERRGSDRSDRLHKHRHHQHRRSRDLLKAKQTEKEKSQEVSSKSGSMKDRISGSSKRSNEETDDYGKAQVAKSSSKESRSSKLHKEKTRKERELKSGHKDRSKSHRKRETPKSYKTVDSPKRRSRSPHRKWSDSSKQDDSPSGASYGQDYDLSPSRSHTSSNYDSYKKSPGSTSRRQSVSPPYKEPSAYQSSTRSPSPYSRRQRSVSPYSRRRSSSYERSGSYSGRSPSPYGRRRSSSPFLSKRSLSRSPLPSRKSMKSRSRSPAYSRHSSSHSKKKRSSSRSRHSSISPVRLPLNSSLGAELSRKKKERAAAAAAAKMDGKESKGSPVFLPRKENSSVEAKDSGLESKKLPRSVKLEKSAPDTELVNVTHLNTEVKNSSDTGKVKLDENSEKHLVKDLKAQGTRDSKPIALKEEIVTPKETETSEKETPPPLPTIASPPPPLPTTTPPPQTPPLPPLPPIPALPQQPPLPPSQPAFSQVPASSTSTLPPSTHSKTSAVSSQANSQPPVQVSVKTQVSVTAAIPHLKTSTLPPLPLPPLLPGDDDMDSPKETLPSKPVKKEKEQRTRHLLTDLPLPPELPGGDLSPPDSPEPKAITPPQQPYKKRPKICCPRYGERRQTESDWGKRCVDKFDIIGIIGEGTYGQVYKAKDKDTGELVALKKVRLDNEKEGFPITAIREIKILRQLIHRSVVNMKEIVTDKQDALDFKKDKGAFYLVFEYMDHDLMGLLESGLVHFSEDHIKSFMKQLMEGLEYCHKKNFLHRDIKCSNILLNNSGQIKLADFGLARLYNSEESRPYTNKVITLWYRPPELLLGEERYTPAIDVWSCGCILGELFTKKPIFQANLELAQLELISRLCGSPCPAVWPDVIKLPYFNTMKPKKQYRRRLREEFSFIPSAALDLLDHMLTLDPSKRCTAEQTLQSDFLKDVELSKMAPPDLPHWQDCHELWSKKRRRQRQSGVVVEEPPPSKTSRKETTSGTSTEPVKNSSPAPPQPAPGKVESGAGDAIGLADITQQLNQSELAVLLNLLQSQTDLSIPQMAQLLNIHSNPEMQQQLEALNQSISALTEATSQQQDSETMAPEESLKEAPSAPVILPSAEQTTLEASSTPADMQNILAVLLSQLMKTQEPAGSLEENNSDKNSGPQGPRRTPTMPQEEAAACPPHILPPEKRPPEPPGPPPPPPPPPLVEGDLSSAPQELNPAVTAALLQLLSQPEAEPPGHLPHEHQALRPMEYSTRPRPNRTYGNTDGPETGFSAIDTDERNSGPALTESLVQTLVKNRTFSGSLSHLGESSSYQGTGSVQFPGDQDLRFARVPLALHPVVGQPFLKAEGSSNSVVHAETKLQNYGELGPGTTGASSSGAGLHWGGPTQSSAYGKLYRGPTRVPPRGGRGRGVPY
Procedure: HEK293 cells overexpressing a Cdk14-flag fusion protein were treated with candidate compounds for 4 hours. Cells were washed with PBS, harvested and lysed in Pierce IP buffer with protease and phosphatase inhibitors (Roche). […] To enhance pulldown, lysates were incubated at room temperature for an additional 2 hours. Lysates were then incubated with streptavidin agarose (Thermo scientific, cat. #20349) for 2 hours at 4° C. Beads were then washed 3 times with Pierce IP buffer, then boiled at 95° C. for 5 minutes in 2× LDS+10% β-mercaptoethanol. Proteins of interest engaged by the biotinylated compound were then assessed using western blotting. The results of the cellular pulldown protocol are provided in Tables 1 and 2A, 2B, 2C, and 2D below (Columns titled “CDK2 pulldown,” “CDK9 pulldown,” “CDK12 pulldown blocked,” “CDK14 pulldown blocked,” and “Cellular Potency Pulldown.”)

In the case of `CN(C)C/C=C/C(=O)Nc1cccc(S(=O)(=O)N2CCC(NC(=O)c3n[nH]cc3NC(=O)c3c(Cl)cc(Cl)cc3Cl)CC2)c1` [FMF-04-159-2, (E)-N-(1-((3-(4-(dimethylamino)but-2-enamido)phenyl)sulfonyl)piperidin-4-yl)-4-(2,4,6-trichlorobenzamido)-1H-pyrazole-3-carboxamide], the IC50 (HCT116 cells) is reported as 450 nM, the IC50 (HCT116 cells; Homo sapiens, HCT-116, 72 h) is reported as 450 nM and the “CDK14 pulldown blocked” value (Cdk14 [1]) is reported as 500 nM. The “Cellular Potency by Pulldown” value (Cdk14 [1]; some cells print Y or N instead of a concentration) was 500 nM, the “MS labeling of CDK14*” value (Cdk14 [2]) was 100% and the IC50 (Cdk14 [3]) was 718 nM. For the same molecule, the IC50 (Cdk14/CycY; read-out: CDK14 IC50 (nM) LanthaScreen) was 46.6 nM, the IC50 (Cdk14/CycY; read-out: IC50 CDK14 binding by Lanthascreen) was 47 nM and the IC50 (CDK2/CycA; read-out: CDK2 IC50) was 8.2 nM. The IC50 (CDK2/CycA; read-out: IC50 CDK2 Z′LYTE kinase assay) was 10.1 nM, the IC50 (CDK16/CycY; read-out: CDK16 IC50) was 10.1 nM and the IC50 (CDK16/CycY; read-out: IC50 CDK16 Lanthascreen binding) was 8.2 nM. The CDK12 pulldown blocked (CDK12) was “slight”.
